Measurements from the NIST ThermoML archive (doi:10.1016/j.jct.2006.10.008).

Assays:
[1] = xn = mol fraction of the nth substance listed; conditions: 298.15 K, 101 kPa, Liquid
[2] = excess molar enthalpy (molar enthalpy of mixing); xn = mol fraction of the nth substance listed; conditions: 298.15 K, 101 kPa, Liquid, Calvet calorimetry

COC=O [methyl methanoate] + ClCCCl
Conditions | excess molar enthalpy [kcal/mol] | mass density [kg/m3]
[1], x1 = 0.0778 | – | 1227.3
[1], x1 = 0.1458 | – | 1211.22
[1], x1 = 0.2144 | – | 1194.43
[1], x1 = 0.2795 | – | 1177.71
[1], x1 = 0.3474 | – | 1160.37
[1], x1 = 0.4099 | – | 1143.76
[1], x1 = 0.4725 | – | 1126.96
[1], x1 = 0.5316 | – | 1110.73
[1], x1 = 0.5888 | – | 1094.68
[1], x1 = 0.6463 | – | 1077.99
[1], x1 = 0.6998 | – | 1062.25
[1], x1 = 0.753 | – | 1046.16
[1], x1 = 0.8045 | – | 1030.32
[1], x1 = 0.8548 | – | 1014.49
[1], x1 = 0.9043 | – | 998.6
[1], x1 = 0.9525 | – | 982.78
[2], x1 = 0.0754 | 0.00636 | –
[2], x1 = 0.1373 | 0.011 | –
[2], x1 = 0.1901 | 0.0152 | –
[2], x1 = 0.2508 | 0.019 | –
[2], x1 = 0.3109 | 0.0219 | –
[2], x1 = 0.3728 | 0.0238 | –
[2], x1 = 0.4325 | 0.0247 | –
[2], x1 = 0.4874 | 0.0246 | –
[2], x1 = 0.5372 | 0.024 | –
[2], x1 = 0.5928 | 0.0226 | –
[2], x1 = 0.6569 | 0.0206 | –
[2], x1 = 0.7322 | 0.0175 | –
[2], x1 = 0.8084 | 0.0138 | –
[2], x1 = 0.8844 | 0.00951 | –
[2], x1 = 0.9514 | 0.0049 | –

ClCCCCCCl [1,5-dichloropentane] + CCCCOC=O
Conditions | excess molar enthalpy [kcal/mol] | mass density [kg/m3]
[1], x2 = 0.0753 | – | 1081.49
[1], x2 = 0.1366 | – | 1070.16
[1], x2 = 0.2613 | – | 1046.7
[1], x2 = 0.3251 | – | 1034.45
[1], x2 = 0.3849 | – | 1022.81
[1], x2 = 0.4446 | – | 1011
[1], x2 = 0.5039 | – | 999.1
[1], x2 = 0.6199 | – | 975.33
[1], x2 = 0.676 | – | 963.59
[1], x2 = 0.732 | – | 951.7
[1], x2 = 0.787 | – | 939.85
[1], x2 = 0.841 | – | 928.06
[1], x2 = 0.8939 | – | 916.34
[1], x2 = 0.9477 | – | 904.29
[2], x2 = 0.0722 | 0.000717 | –
[2], x2 = 0.1463 | -0.000837 | –
[2], x2 = 0.2242 | -0.0054 | –
[2], x2 = 0.2989 | -0.0111 | –
[2], x2 = 0.3685 | -0.0188 | –
[2], x2 = 0.4319 | -0.0268 | –
[2], x2 = 0.4894 | -0.0315 | –
[2], x2 = 0.5395 | -0.0354 | –
[2], x2 = 0.5701 | -0.037 | –
[2], x2 = 0.5843 | -0.0369 | –
[2], x2 = 0.6266 | -0.0344 | –
[2], x2 = 0.6861 | -0.0311 | –
[2], x2 = 0.7462 | -0.0271 | –
[2], x2 = 0.8107 | -0.0216 | –
[2], x2 = 0.8755 | -0.0156 | –
[2], x2 = 0.9382 | -0.00894 | –

CCCCCOC=O [pentyl methanoate] + ClCCCCl
Conditions | excess molar enthalpy, [2] [kcal/mol] | mass density, [1] [kg/m3]
x1 = 0.0471 | – | 1159.68
x1 = 0.0477 | -0.00664 | –
x1 = 0.0911 | – | 1142.71
x1 = 0.1093 | -0.0151 | –
x1 = 0.1377 | – | 1125.33
x1 = 0.1729 | -0.0245 | –
x1 = 0.1848 | – | 1108.29
x1 = 0.2341 | – | 1091.1
x1 = 0.2358 | -0.0341 | –
x1 = 0.2905 | -0.0437 | –
x1 = 0.3403 | – | 1056.06
x1 = 0.3427 | -0.0529 | –
x1 = 0.3933 | -0.0605 | –
x1 = 0.4528 | – | 1021.65
x1 = 0.4564 | -0.0661 | –
x1 = 0.5122 | -0.0678 | 1004.48
x1 = 0.5719 | -0.0682 | –
x1 = 0.5737 | – | 987.37
x1 = 0.6379 | – | 970.23
x1 = 0.6452 | -0.0655 | –
x1 = 0.7034 | – | 953.41
x1 = 0.7254 | -0.0585 | –
x1 = 0.7721 | – | 936.49
x1 = 0.8109 | -0.045 | –
x1 = 0.8438 | – | 919.53
x1 = 0.9161 | -0.0244 | –
x1 = 0.9188 | – | 902.44

CCCOC=O [propyl methanoate] + ClCCCCl
Conditions | excess molar enthalpy [kcal/mol] | mass density [kg/m3]
[1], x1 = 0.0612 | – | 1161.75
[1], x1 = 0.1204 | – | 1145.46
[1], x1 = 0.1775 | – | 1129.76
[1], x1 = 0.2355 | – | 1113.91
[1], x1 = 0.2944 | – | 1097.92
[1], x1 = 0.3527 | – | 1082.1
[1], x1 = 0.4109 | – | 1066.46
[1], x1 = 0.4695 | – | 1050.7
[1], x1 = 0.5286 | – | 1034.93
[1], x1 = 0.5863 | – | 1019.65
[1], x1 = 0.6459 | – | 1003.85
[1], x1 = 0.7044 | – | 988.35
[1], x1 = 0.763 | – | 972.97
[1], x1 = 0.8214 | – | 957.74
[1], x1 = 0.8796 | – | 942.43
[1], x1 = 0.9386 | – | 927.1
[2], x1 = 0.0618 | -0.000717 | –
[2], x1 = 0.1342 | -0.00406 | –
[2], x1 = 0.2092 | -0.00951 | –
[2], x1 = 0.2838 | -0.0162 | –
[2], x1 = 0.3515 | -0.0231 | –
[2], x1 = 0.4148 | -0.0297 | –
[2], x1 = 0.4714 | -0.0358 | –
[2], x1 = 0.503 | -0.0397 | –
[2], x1 = 0.5539 | -0.0461 | –
[2], x1 = 0.6084 | -0.0502 | –
[2], x1 = 0.6696 | -0.0491 | –
[2], x1 = 0.7356 | -0.0441 | –
[2], x1 = 0.8024 | -0.0365 | –
[2], x1 = 0.8727 | -0.0258 | –
[2], x1 = 0.9394 | -0.0134 | –
